pEC50: −log10 of the molar value.

For this test, the system named is TFEB. Description: TFEB nuclear translocation assay. Type of test: cell-based. The note with it: Homo sapiens; HeLa wt or HeLa TRPML1 KO cells, treated for 2 hrs; ratio of nuclear to ring-region TFEB intensity. The method, then:
For the TFEB nuclear translocation assay, HeLa wt or HeLa TRPML1 KO cells were plated at 2700 cells/well into black-walled, 384-well Cell carrier Ultra tissue culture treated plates in complete media and incubated overnight. The next day, cells are treated for 2 hrs with compounds and incubated at 37° C. Cells were then fixed for 30 minutes at room temperature in 4% final PFA and washed five times with 90 μL PBS. PBS is aspirated from the wells and the cells are blocked with 7.5 μL blocking buffer (1.1 PBS/Odyssey block buffer containing 0.1% triton x-100 and 1% goat serum). After 30-60 minutes of block, 7.5 μL of primary anti-TFEB (rabbit) antibody is added for a final dilution of 1:200 antibody in 15 μL blocking buffer. Plates are incubated overnight at 4° C. The following day, plates are washed again into PBS, 90 μL with 5 washes, all PBS is aspirated from the wells and the cells are incubated for 1 hr in 1:1000 goat-anti rabbit Alexa 488 secondary antibody, also containing 10 μg/mL Hoechst 33342. After the 1 hr RT incubation, plates are washed a final time into PBS, sealed with foil and imaged with an automated epifluorescence microscopy (PerkinElmer Operetta CLS). Four different fields were imaged per well using ×20 magnification for DAPI and FITC filter sets. Images were quantified using PerkinElmer Harmony software, briefly: apply flatfield correction (basic/advanced) for input images. Use the Find Nuclei building block with channel set at Hoechst to find the nuclei. Use the Find cytoplasm building block with channel set to Alexa 488 to find the cytoplasm. Use select cell region with Channel set at Alexa 488 and region of interest as Nuclei and define outer border at 0 μm and inner at 45 μm to cover complete nuclei. Use select cell region with Channel set at Alexa 488 and region of interest as ring region and define outer border at −5 μm and inner at 0 μm to define a ring around the nucleus. Use the find calculate intensity parameter to calculate intensity of the nuclear region and the ring region. Define results as Number of nuclei and ratio of A/B where A is Intensity of Nuclei and B is intensity of the ring region.
For the molecule `O=S(=O)(c1cnc(-c2ccccc2)o1)N1CC2(CCCC2)c2ccccc21` [Compound I-39, 1′-[(2-phenyl-1,3-oxazol-5-yl)sulfonyl]-1′,2′-dihydrospiro[cyclopentane-1,3′-indole]], the pEC50 (commonly the negative decadic logarithm of the EC50, by convention in mol/L) is no more than 5.00.

With `O=S(=O)(C1=Cc2ccccc2OCC1)N1CC2(CCCC2)c2ccccc21` [Compound I-40, 1′-(2,3-dihydro-1-benzoxepine-4-sulfonyl)-1′,2′-dihydrospiro[cyclopentane-1,3′-indole]], the pEC50 was 5.10 to 5.70.

`O=S(=O)(C1=Cc2ccccc2OC1)N1CC2(CCCC2)c2ccccc21` [Compound I-41, 1′-(2H-chromene-3-sulfonyl)-1′,2′-dihydrospiro[cyclopentane-1,3′-indole]]: the pEC50 is 5.00 to 5.10.

For `O=S(=O)(C1=Cc2ccccc2CC1)N1CC2(CCCC2)c2ccccc21` [Compound I-42, 1′-(3,4-dihydronaphthalene-2-sulfonyl)-1′,2′-dihydrospiro[cyclopentane-1,3′-indole]], the negative-log EC50 (pEC50) was 5.10 to 5.70.

`O=S(=O)(c1ccn(C2CC2(F)F)n1)N1CC2(CCCC2)c2ccccc21` (stereo not shown) [Compound I-43, 1′-{[1-(2,2-difluorocyclopropyl)-1H-pyrazol-3-yl]sulfonyl}-1′,2′-dihydrospiro[cyclopentane-1,3′-indole]]: the negative logarithm of the EC50 (pEC50) is no more than 5.00.

Consider `Cc1ccc(CS(=O)(=O)N2CC3(CCCC3)c3ccccc32)c(F)c1` [Compound I-44, 1′-[(2-fluoro-4-methylphenyl)methanesulfonyl]-1′,2′-dihydrospiro[cyclopentane-1,3′-indole]], for which the pEC50 was 5.10 to 5.70.

Regarding `O=S(=O)(Cc1ccc(C(F)F)cc1)N1CC2(CCCC2)c2ccccc21` [Compound I-45, 1′-{[4-(difluoromethyl)phenyl]methanesulfonyl}-1′,2′-dihydrospiro[cyclopentane-1,3′-indole]], the pEC50 is 5.10 to 5.70.

With `O=S(=O)(Cc1cccc(Cl)c1)N1CC2(CCCC2)c2ccccc21` [Compound I-46, 1′-[(3-chlorophenyl)methanesulfonyl]-1′,2′-dihydrospiro[cyclopentane-1,3′-indole]], the pEC50 was 5.10 to 5.70.

Turning to `Cc1ccc(F)c(CS(=O)(=O)N2CC3(CCCC3)c3ccccc32)c1` [Compound I-47, 1′-[(2-fluoro-5-methylphenyl)methanesulfonyl]-1′,2′-dihydrospiro[cyclopentane-1,3′-indole]], the negative-log EC50 (pEC50) was 5.10 to 5.70.

As to `O=S(=O)(c1cccc(C2CC2(F)F)c1)N1CC2(CCCC2)c2ccccc21` (stereo not shown) [Compound I-49, 1′-[3-(2,2-difluorocyclopropyl)benzenesulfonyl]-1′,2′-dihydrospiro[cyclopentane-1,3′-indole]], the negative-log EC50 (pEC50) is 5.10 to 5.70.

In the case of `CC(C)(O)c1ccc(S(=O)(=O)N2CC3(CCCC3)c3ccccc32)cc1` [Compound I-50, 2-[4-({1′,2′-dihydrospiro[cyclopentane-1,3′-indol]-1′-yl}sulfonyl)phenyl]propan-2-ol], the negative logarithm of the EC50 (pEC50) is no more than 5.00.

`CC1(C)Cc2cc(S(=O)(=O)N3CC4(CCCC4)c4ccccc43)ccc2C1=O` [Compound I-51, 5-({1′,2′-dihydrospiro[cyclopentane-1,3′-indol]-1′-yl}sulfonyl)-2,2-dimethyl-2,3-dihydro-1H-inden-1-one]: the negative-log EC50 (pEC50) was 5.00 to 5.10.

As to `CN(c1ccc(S(=O)(=O)N2CC3(CCCC3)c3ccccc32)cc1)S(C)(=O)=O` [Compound I-52, N-[4-({1′,2′-dihydrospiro[cyclopentane-1,3′-indol]-1′-yl}sulfonyl)phenyl]-N-methylmethanesulfonamide], the pEC50 is no more than 5.00.

For `COC(=O)C(C)(C)c1ccc(S(=O)(=O)N2CC3(CCCC3)c3ccccc32)cc1` [Compound I-53, methyl 2-[4-({1′,2′-dihydrospiro[cyclopentane-1,3′-indol]-1′-yl}sulfonyl)phenyl]-2-methylpropanoate], the negative logarithm of the EC50 (pEC50) was no more than 5.00.

Take `CC(C)(CO)c1ccc(S(=O)(=O)N2CC3(CCCC3)c3ccccc32)cc1` [Compound I-54, 2-[4-({1′,2′-dihydrospiro[cyclopentane-1,3′-indol]-1′-yl}sulfonyl)phenyl]-2-methylpropan-1-ol]: the pEC50 is no more than 5.00.

Regarding `CN1Cc2cc(S(=O)(=O)N3CC4(CCCC4)c4ccccc43)ccc2C1=O` [Compound I-55, 5-({1′,2′-dihydrospiro[cyclopentane-1,3′-indol]-1′-yl}sulfonyl)-2-methyl-2,3-dihydro-1H-isoindol-1-one], the negative-log EC50 (pEC50) was no more than 5.00.

In the case of `COC(C)(C)c1ccc(S(=O)(=O)N2CC3(CCCC3)c3ccccc32)cc1` [Compound I-56, 1′-[4-(2-methoxypropan-2-yl)benzenesulfonyl]-1′,2′-dihydrospiro[cyclopentane-1,3′-indole]], the negative-log EC50 (pEC50) was no more than 5.00.

Regarding `CC1(C)OCc2ccc(S(=O)(=O)N3CC4(CCCC4)c4ccccc43)cc21` [Compound I-58, 1′-[(3,3-dimethyl-1,3-dihydro-2-benzofuran-5-yl)sulfonyl]-1′,2′-dihydrospiro[cyclopentane-1,3′-indole]], the pEC50 is 5.10 to 5.70.

In the case of `O=S(=O)(c1ccc2c(c1)CCOC2)N1CC2(CCCC2)c2ccccc21` [Compound I-59, 1′-(3,4-dihydro-1H-2-benzopyran-6-sulfonyl)-1′,2′-dihydrospiro[cyclopentane-1,3′-indole]], the pEC50 was no more than 5.00.

On to `COC(C)(C)c1cccc(S(=O)(=O)N2CC3(CCCC3)c3ccccc32)c1` [Compound I-60, 1′-[3-(2-methoxypropan-2-yl)benzenesulfonyl]-1′,2′-dihydrospiro[cyclopentane-1,3′-indole]], for which the pEC50 is 5.00 to 5.10.

As for `CC(C)(O)c1cccc(S(=O)(=O)N2CC3(CCCC3)c3ccccc32)c1` [Compound I-61, 2-[3-({1′,2′-dihydrospiro[cyclopentane-1,3′-indol]-1′-yl}sulfonyl)phenyl]propan-2-ol], the negative logarithm of the EC50 (pEC50) was no more than 5.00.

With `COC(=O)c1ccc(CS(=O)(=O)N2CC3(CCCC3)c3ccccc32)cc1` [Compound I-62, methyl 4-[({1′,2′-dihydrospiro[cyclopentane-1,3′-indol]-1′-yl}sulfonyl)methyl]benzoate], the negative logarithm of the EC50 (pEC50) was no more than 5.00.

`CS(=O)(=O)Nc1ccc(S(=O)(=O)N2CC3(CCCC3)c3ccccc32)cc1` [Compound I-63, N-[4-({1′,2′-dihydrospiro[cyclopentane-1,3′-indol]-1′-yl}sulfonyl)phenyl]methanesulfonamide]: the negative-log EC50 (pEC50) was no more than 5.00.

In the case of `O=S(=O)(c1ccc2c(c1)OC1(CCC1)O2)N1CC2(CCCC2)c2ccccc21` [Compound I-64, 1′-({spiro[1,3-benzodioxole-2,1′-cyclobutan]-6-yl}sulfonyl)-1′,2′-dihydrospiro[cyclopentane-1,3′-indole]], the negative logarithm of the EC50 (pEC50) is 5.10 to 5.70.

With `CS(=O)(=O)c1ccc(S(=O)(=O)N2CC3(CCN(c4ccc(Cl)cc4F)CC3)c3ccccc32)cc1` [Compound I-65, 1′-(4-chloro-2-fluorophenyl)-1-((4-(methylsulfonyl)phenyl)sulfonyl)spiro[indoline-3,4′-piperidine]], the negative-log EC50 (pEC50) was no less than 5.70.

Regarding `CC1(C)OCc2cc(S(=O)(=O)N3CC4(CCCC4)c4ccccc43)ccc21` [Compound I-66, 1′-((1,1-dimethyl-1,3-dihydroisobenzofuran-5-yl)sulfonyl)spiro[cyclopentane-1,3′-indoline]], the pEC50 was 5.10 to 5.70.

As for `CN(C)S(=O)(=O)c1ccc(S(=O)(=O)N2CC3(CCOCC3)c3ccccc32)cc1` [Compound I-69, 4-({1,2-dihydrospiro[indole-3,4′-oxan]-1-yl}sulfonyl)-N,N-dimethylbenzene-1-sulfonamide], the negative-log EC50 (pEC50) is no less than 5.70.

Consider `CN(C)S(=O)(=O)c1ccc(S(=O)(=O)N2CC3(CCCC3)c3cnccc32)cc1` [Compound I-70, 4-({1′,2′-dihydrospiro[cyclopentane-1,3′-pyrrolo[3,2-c]pyridin]-1′-yl}sulfonyl)-N,N-dimethylbenzene-1-sulfonamide], for which the pEC50 is no more than 5.00.

For the molecule `CN(C)S(=O)(=O)c1ccc(S(=O)(=O)N2CC3(CCCC3)c3cccnc32)cc1` [Compound I-71, 4-({1′,2′-dihydrospiro[cyclopentane-1,3′-pyrrolo[2,3-b]pyridin]-1′-yl}sulfonyl)-N,N-dimethylbenzene-1-sulfonamide], the negative logarithm of the EC50 (pEC50) was no more than 5.00.

With `CN(C)S(=O)(=O)c1ccc(S(=O)(=O)N2CC3(CCC(O)CC3)c3ccccc32)cc1` (stereo not shown) [Compound I-72, 4-({4-hydroxy-1′,2′-dihydrospiro[cyclohexane-1,3′-indol]-1′-yl}sulfonyl)-N,N-dimethylbenzene-1-sulfonamide], the negative logarithm of the EC50 (pEC50) is 5.10 to 5.70.

As for `Cc1cccc(-n2cc(S(=O)(=O)N3CC4(CCCC4)c4ccccc43)cn2)c1` [Compound I-75, 1′-{[1-(3-methylphenyl)-1H-pyrazol-4-yl]sulfonyl}-1′,2′-dihydrospiro[cyclopentane-1,3′-indole]], the pEC50 was 5.00 to 5.10.

Source of the values: patent US20230416262A1, “TRPML MODULATORS” (Casma Therapeutics, Inc., priority 2020, published 2023).
